The results in this text go back to patent EP0364581A1, “METHOD OF STERILIZING PLANT POLLEN” (VSESOJUZNY NAUCHNO-ISSLEDOVATELSKY INST. SELSKOKHOZYAISTV. …, priority 1988, dated 1989).

The test system of data set [1] is diploidem Roggen Sorte Belorusskaya 23. Description: field test of gametocidal activity (sterilisation of anthers). It is filed as in vivo. The conditions noted are these: V. und VI. Periode, 1%ige wäßrige Emulsion, 6 kg/ha; for Prozentsatz des Ansetzens der Körner bei freier Bestäubung: control = 100. From the text:
(§1) Die gametozide Aktivität der erfindungsgemäßen Sterilisationsmittel war in Feldversuch in verschiedenen bodenklimatischen Zonen mit Teilstücken von 10 m^2 Größe in drei-- bis viermaliger Wiederholung nachgewiesen. Jedes Sterilisationsmittel wurde mindestens 5 Jahre lang geprüft.
(§2) Die Entwicklung der Perioden der Organogenese wird zytologisch überwacht. Die Behandlung von Pflanzen mit dem Sterilisationsmittel erfolgt am Anfang der fünften Periode der Organogenese nach Kupermann.
(§3) Mit dem Ahrenschieben verwirklicht man die Isolierung von Hauptähren und anderen Stockwerken in Pergamentbeuteln. Bei Weizen und Tritikale werden Einzelisolatoren verwendet. Bei Roggen schließt man je 1 Ähre von 5 bis 7 verschiedenen nebeneinander befindlichen Pflanzen in einen gemeinsamen Isolator ein. Bei Hirse wird jede Rispe getrennt isoliert. Der Sterilitätsprozentsatz (X) für Weizen, Roggen, Tritikale und Hirse wird nach der Formel [formula]
(§4) Samen von unbehandelten Kontrollpflanzen ermittelt.
(§5) Die Kornzahl in nicht isolierten Ähren von Kontrollpflanzen wird bedingt für 100% Ansetzen bei freier Bestäubung angenommen.
(§6) Um zuverlässige Angaben zu erhalten, verwendet man 20 bis 25 Isolatoren jeder Wiederholung für Weizen und Tritikale, 10 bis 15 Isolatoren jeder Wiederholung für Roggen und Hirse.
Pflanzen von diploidem Roggen Sorte Belorusskaya 23 werden in der V. und VI. Periode der Organogenese (nach Kupermann) mit einer 1%igen wäßrigen Emulsion von Phthalsäuredibutylester, Kaliumsalz der 2-Methyl-3-zyklohexenkarbonsäure behandelt. Die Emulsion enthält 0,01 Masse% Dodezylsulfat, und 0,1 Masse% C12-C14-Kalziumalkylbenzolsulfonat.
Der Verbrauch an Präparat beträgt 6 kg/ha. Als Kontrolle dienen Pflanzen, behandelt mit einem Verdünner ohne Sterilisationsmittel.

Data set [2] deals with Sonnenblume Sorte Peredovik. Briefly: field test of chemical sterilisation of sunflower pollen. It is filed as in vivo. The conditions noted are these: V. Periode.
Text: as §1, §2
(§7) Zur Kontrolle der chemischen Sterilisation des Sonnenblumenpollens werden für jede Verbindung 45 behandelte Pflanzen jeder Wiederholung benutzt, wobei 15 Pflanzen zwecks Selbsbestäubung isoliert werden, Blutenkörbchen von 15 anderen Pflanzen mit einem Pollengemisch, gesammelt von 20 bis 25 behandelten isolierten Körbchen, bestäubt werden, und 15 Pflanzen für freie Bestäubung gelassen werden, damit das Ansetzen von Achänen mit dem Pollen der Vaterform kontrolliert werden kann.
(§8) Man beurteilt die Pollensterilität von Pflanzen der Sonnenblume nach der Pollenfertilität und -keimfahigkeit, nach den morphologischen Besonderheiten von Spermien und nach der Fähigkeit von Achänen zum Ansetzen bei der Bestäubung der behandelten isolierten Pflanzen mit dem Pollen der unbehandelten väterlischen Form. Die Läbensfähigkeit der Eizelle wird nach der Samenbildung bei behandelten Pflanzen bei freier Bestäubung der väterlichen Form bestimmt.
Pflanzen der Sonnenblume Sorte Peredovik werden in der V. […] Die Emulsion enthält 0,01 Masse% Dimethylsulfoxid und 0,1 Masse% C12-C14-Kalziumalkylbenzolsulfonat. Die Sonnenblume Linie VK-119 werden mit einer 0,2%igen wäßrigen Emulsion von Phthalsäuredibutylester, 0,1%igen wäßrigen Emulsion von Phthalsäurediäthylester, Kaliumsalz der 2-Methyl-3-zyklohexenkarbonsäure, 1%igen wäßrigen Emulsion von Natriumsalz der. 2-Methyl-3-zyklohexen- karbonsäure und 0,01%igen wäßrigen Emulsion von 2-Methyl--3-zyklohexenkarbonsäuremethylester behandelt. Die Emulsion enthält 0,01 Masse% Dimethylformamid und 0,1 Masse% C12-C14--Kalziumalkylbenzolsulfonat.
(§9) Als Kontrolle in allen Fällen dienen Pflanzen, behandelt mit einem Verdünner ohne Sterilisationsmittel.

Data set [3] can be described thus: acute toxicity in animals. Details: species or system weiße Ratten. To be noted: rat, in vivo. An excerpt:
(§10) Alle erfindungsgemäßen Karbonsäurederivate, die als Sterilisationsmittel zur Verwendung kommen, waren auf die akute Toxizität im Tierversuch geprüft. Die Prüfergebnisse haben ergeben, daß die angegebenen Verbindungen von schwacher oder mittlerer Toxizität sind.

For another data set, the system named is Sonnenblume Linie VK-119. Briefly: field test of chemical sterilisation of sunflower pollen. It is filed as in vivo. To be noted: Linie BK-119.
Text: as §1, §2, §7, §8
Pflanzen der Sonnenblume Sorte Peredovik werden in der V. Periode der Organogenese (nach Kupermann) mit einer 0,5%igen wäßrigen Emulsion von Phthalsäuredibutylester, Phthalsäurediäthylester, Kaliumsalz der 2-Methyl-3-zyklohexenkarbonsäu- re, Natriumsalz der 2-Methyl-3-zyklohexenkarbonsäure sowie mit einer 0,05%igen wäßrigen Emulsion von 2-Methyl-3-zyklo- hexenkarbonsäuremethylester behandelt. Die Emulsion enthält 0,01 Masse% Dimethylsulfoxid und 0,1 Masse% C12-C14-Kalziumalkylbenzolsulfonat. Die Sonnenblume Linie VK-119 werden mit einer 0,2%igen wäßrigen Emulsion von Phthalsäuredibutylester, 0,1%igen wäßrigen Emulsion von Phthalsäurediäthylester, Kaliumsalz der 2-Methyl-3-zyklohexenkarbonsäure, 1%igen wäßrigen Emulsion von Natriumsalz der. 2-Methyl-3-zyklohexen- karbonsäure und 0,01%igen wäßrigen Emulsion von 2-Methyl--3-zyklohexenkarbonsäuremethylester behandelt. Die Emulsion enthält 0,01 Masse% Dimethylformamid und 0,1 Masse% C12-C14--Kalziumalkylbenzolsulfonat.
as §9

The subject of a further data set is Sonnenblume Linie BK-373. The data set is described as above. The class given is in vivo.
Text: as §1, §2, §7, §8
Die Sonnenblume Linie BK-373 werden mit einer 0,2%igen wäßrigen Emulsion von Phthalsäuredibutylester, 0,1%igen wäßrigen Emulsion von Kaliumsalz der 2-Methyl-3-zyklohexylkar- bonsäuremethylester und 0,2%igen wäßrigen Emulsion von Phthalsäurediäthylester behandelt. Die Emulsion enthält 0,01 Masse% Dodezylsulfat und 0,1 Masse% C12-C14-Kalziumalkylbenzolsulfonat.
as §9

In data set [4] the test system is Sommerweizens Sorte Rodina. Description: field test of gametocidal activity (sterilisation of anthers). The class given is in vivo, Sommerweizen. The conditions noted are these: V. und VI. Periode, 1%ige wäßrige Emulsion, 6 kg/ha; for Prozentsatz des Ansetzens der Körner bei freier Bestäubung: control = 100.
Text: as §1, §2, §3, §4, §5, §6
Pflanzen des Sommerweizens Sorte Rodina werden in der V. und VI. Periode der Organogenese (nach Kupermann) mit einer l%igen wäßrigen Emulsion von Ammoniumsalz der 2-Methyl-3-zyklohexenkarbonsäure, Phthalsäuredihexylester, Phthalsäurediisobutylester behandelt. Die Emulsion enthält 0,01 Masse% Dodezysulfat und 0,1 Masse% C12-C14--Kalziumalkylbenzolsulfonat. Der Verbrauch an Präparat beträgt 6 kg/ha. Als Kontrolle dienen Pflanzen, behandelt mit einem Verdünner ohne Sterilisationsmittel.

Data set [5] is described as follows: acute toxicity in animals. To be noted: mouse, in vivo, po; weiße Mäuse; einmalige Einführung in den Magen.
Text: as §10

The mark [6] stands for this setting: Präparat 0,01 Masse%, 0,06 kg/ha.
Setting [7] is: Präparat 0,05 Masse%, 0,3 kg/ha.

Where two headings read alike, the source gives them in different places.

Regarding `CC1C=CCCC1C(=O)O` (centres unmarked) [Beispiel 75, Kaliumsalz der 2-Methyl-3-zyklohexenkarbonsäure], in data set [1], the “Kornzahl der Ähre bei freier Bestäubung” value is given as 43,0, the “Kornzahl der Ähre im Isolator” value is 0,0, the “Prozentsatz der Sterilität” value is on record as 100,0% and the “Prozentsatz des Ansetzens der Körner bei freier Bestäubung” value is recorded as 95,0%.
For the compound `CCCCOC(=O)c1ccccc1C(=O)OCCCC` [Beispiel 103, Phthalsäuredibutylester], in data set [2] (Präparat 1,0 Masse%, 6,0 kg/ha), the “Ansetzen der Achänen bei freier Bestäubung” value is on record as 82,3 and the “Prozentsatz der Sterilität” value was 100,0%.
Turning to `CCCCOC(=O)c1ccccc1C(=O)OCCCC` [Beispiel 74, Phthalsäuredibutylester], in data set [1], the “Kornzahl der Ähre bei freier Bestäubung” value was 42,5, the “Kornzahl der Ähre im Isolator” value is recorded as 0,0, the “Prozentsatz der Sterilität” value is on record as 100,0% and the “Prozentsatz des Ansetzens der Körner bei freier Bestäubung” value is recorded as 94,9%.
`CC1C=CCCC1C(=O)O` (centres unmarked) [Kaliumsalz der 2-Methyl-3-zyklohexenkarbonsäure] had an LD50 in data set [3] of 7660 mg/kg.
Consider `CC1C=CCCC1C(=O)O` (centres unmarked) [Beispiel 106, Natriumsalz der 2-Methyl-3-zyklohexenkarbonsäure], for which, in data set [2] (Präparat 1,0 Masse%, 6,0 kg/ha), the “Ansetzen der Achänen bei freier Bestäubung” value is recorded as 84,1 and the “Prozentsatz der Sterilität” value is given as 100,0%.
Turning to `CCCCOC(=O)c1ccccc1C(=O)OCCCC` [Beispiel 108, Phthalsäuredibutylester], in the data set with Sonnenblume Linie VK-119 (Präparat 0,2 Masse%, 1,2 kg/ha), the “Ansetzen der Achänen bei freier Bestäubung” value is given as 83,5 and the “Prozentsatz der Sterilität” value was 100,0%.
On to `CC1C=CCCC1C(=O)O` (centres unmarked) [Beispiel 105, Kaliumsalz der 2-Methyl-3-zyklohexenkarbonsäu-re], for which, in data set [2] (Präparat 1,0 Masse%, 6,0 kg/ha), the “Ansetzen der Achänen bei freier Bestäubung” value is recorded as 85,0 and the “Prozentsatz der Sterilität” value is 100,0%.
For `CCOC(=O)c1ccccc1C(=O)OCC` [Beispiel 104, Phthalsäurediäthylester] the same measures were 80,0 and 100,0%.
As to `CC1C=CCCC1C(=O)O` (centres unmarked) [Beispiel 110, Kaliumsalz der 2-Methyl-3-zyklohexenkarbonsäure], in the data set on Sonnenblume Linie VK-119 (Präparat 0,1 Masse%, 0,6 kg/ha), the “Ansetzen der Achänen bei freier Bestäubung” value was 85,5 and the “Prozentsatz der Sterilität” value is given as 100,0%.
Consider `CCOC(=O)c1ccccc1C(=O)OCC` [Beispiel 109, Phthalsäurediäthylester], for which, in the data set with Sonnenblume Linie VK-119 (Präparat 0,1 Masse%, 0,6 kg/ha), the “Ansetzen der Achänen bei freier Bestäubung” value is 82,5 and the “Prozentsatz der Sterilität” value was 100,0%.
As to `CCCCOC(=O)c1ccccc1C(=O)OCCCC` [Beispiel 113, Phthalsäuredibutylester], in the data set with Sonnenblume Linie BK-373 (Präparat 0,2 Masse%, 1,2 kg/ha), the “Ansetzen der Achänen bei freier Bestäubung” value was 61,5 and the “Prozentsatz der Sterilität” value was 100,0%.
In the case of `COC(=O)C1CCC=CC1C` (centres unmarked) [Beispiel 112, 2-Methyl--3-zyklohexenkarbonsäuremethylester], in the data set with Sonnenblume Linie VK-119 (setting [6]), the “Ansetzen der Achänen bei freier Bestäubung” value is given as 85,0 and the “Prozentsatz der Sterilität” value is recorded as 100,0%.
Consider `COC(=O)C1CCC=CC1C` (centres unmarked) [Beispiel 115, 2-Methyl--3-zyklohexenkarbonsäuremethylester], for which, in the data set with Sonnenblume Linie BK-373 (setting [6]), the “Ansetzen der Achänen bei freier Bestäubung” value is reported as 65,7 and the “Prozentsatz der Sterilität” value is listed as 100,0%.
As for `CC(C)COC(=O)c1ccccc1C(=O)OCC(C)C` [Beispiel 36, Phthalsäurediisobutylester], in data set [4], the “Kornzahl der Ähre bei freier Bestäubung” value is 31,7, the “Kornzahl der Ähre im Isolator” value is listed as 0,0, the “Prozentsatz der Sterilität” value is recorded as 100,0% and the “Prozentsatz des Ansetzens der Körner bei freier Bestäubung” value is listed as 86,6%.
Regarding `CC1C=CCCC1C(=O)O` (centres unmarked) [Beispiel 111, Natriumsalz der. 2-Methyl-3-zyklohexen-karbonsäure], in the data set with Sonnenblume Linie VK-119 (Präparat 1,0 Masse%, 6,0 kg/ha), the “Ansetzen der Achänen bei freier Bestäubung” value is 85,0 and the “Prozentsatz der Sterilität” value is given as 100,0%.
For the compound `COC(=O)C1CCC=CC1C` (centres unmarked) [Beispiel 107, 2-Methyl-3-zyklo-hexenkarbonsäuremethylester], in data set [2] (setting [7]), the “Ansetzen der Achänen bei freier Bestäubung” value is recorded as 83,8 and the “Prozentsatz der Sterilität” value is on record as 100,0%.
As to `CC1C=CCCC1C(=O)O.N` (centres unmarked) [Beispiel 34, Ammoniumsalz der 2-Methyl-3-zyklohexenkarbonsäure], in data set [4], the “Kornzahl der Ähre bei freier Bestäubung” value is given as 30,8, the “Kornzahl der Ähre im Isolator” value is 0,0, the “Prozentsatz der Sterilität” value is 100,0% and the “Prozentsatz des Ansetzens der Körner bei freier Bestäubung” value is 84,1%.
As for `CCCCOC(=O)c1ccccc1C(=O)OCCCC` [Phthalsäuredibutylester], the LD50 in data set [5] stood at 2840 mg/kg; in data set [3] (weiße Ratten, einmalige Einführung in den Magen (route printed for Phthalsäuredibutylester), read-out: LD50) it was 6670 mg/kg.
Take `CC1C=CCCC1C(=O)[O-].[K+]` (centres unmarked) [Beispiel 114, Kaliumsalz der 2-Methyl-3-zyklohexenkarbonsäure]: in the data set with Sonnenblume Linie BK-373 (Präparat 0,1 Masse%, 0,6 kg/ha), the “Ansetzen der Achänen bei freier Bestäubung” value was 62,9 and the “Prozentsatz der Sterilität” value is 100,0%.
For `CCOC(=O)c1ccccc1C(=O)OCC` [Beispiel 116, Phthalsäurediäthylester], in the data set on Sonnenblume Linie BK-373 (Präparat 0,2 Masse%, 1,2 kg/ha), the “Ansetzen der Achänen bei freier Bestäubung” value is recorded as 64,6 and the “Prozentsatz der Sterilität” value is recorded as 100,0%.
